{"source": "patent US20070243262A1", "about": "“Stable S-nitrosothiol formulations” (priority 2005, published 2007)", "key": {"[1]": {"conditions": "cited from earlier work"}, "[2]": {"test": "GSNO API (powder) stability by HPLC", "assay_type": "physicochemical", "conditions": "for GSNO % w/w at 5° C. / GSNO % w/w at −20° C. / GSNO % w/w at −80° C.: GSNO powder, HPLC", "description": "GSNO powder was tested for stability at various temperatures over a three-month period of time, and each formulation was tested for stability at various temperatures over a six month period of time. Stability was determined by HPLC analysis at various times throughout the test period."}}, "data": [{"smiles": "N[C@@H](CCC(=O)N[C@@H](CSN=O)C(=O)NCC(=O)O)C(=O)O", "note": "[GSNO, S-nitrosoglutathione]", "values": [{"measurement": "stability in aqueous solutions", "setting": "[1]", "value": "decomposing in hours"}, {"measurement": "GSNO % w/w at 5° C.", "setting": "[2]; 0 elapsed days", "value": 92.7, "unit": "% w/w"}, {"measurement": "GSNO % w/w at 5° C.", "setting": "[2]; 14 elapsed days", "value": 84.6, "unit": "% w/w"}, {"measurement": "GSNO % w/w at 5° C.", "setting": "[2]; 30 elapsed days", "value": 89.2, "unit": "% w/w"}, {"measurement": "GSNO % w/w at 5° C.", "setting": "[2]; 90 elapsed days", "value": 80.0, "unit": "% w/w"}, {"measurement": "GSNO % w/w at −20° C.", "setting": "[2]; 0 elapsed days", "value": 92.7, "unit": "% w/w"}, {"measurement": "GSNO % w/w at −20° C.", "setting": "[2]; 14 elapsed days", "value": 90.6, "unit": "% w/w"}, {"measurement": "GSNO % w/w at −20° C.", "setting": "[2]; 30 elapsed days", "value": 91.1, "unit": "% w/w"}, {"measurement": "GSNO % w/w at −20° C.", "setting": "[2]; 90 elapsed days", "value": 89.7, "unit": "% w/w"}, {"measurement": "GSNO % w/w at −80° C.", "setting": "[2]; 0 elapsed days", "value": 92.7, "unit": "% w/w"}, {"measurement": "GSNO % w/w at −80° C.", "setting": "[2]; 30 elapsed days", "value": 91.4, "unit": "% w/w"}, {"measurement": "GSNO % w/w at −80° C.", "setting": "[2]; 90 elapsed days", "value": 91.9, "unit": "% w/w"}, {"measurement": "stability of GSNO powder (in words)", "setting": "[2]; temperatures above 0° C.", "value": "rapidly degrades"}]}]}
